Reference: US20080020421A1, “METHODS OF SCREENING AGENTS FOR CYTOTOXIC AND ANTIMICROBIAL ACTIVITY” (priority 2006, published 2008)

Key:
[1] = test system: M. avium-GFP (strain MAC104); experiment: Toxicity assay with GFP-expressing M. avium; conditions: for Percent-GFP-fluorescence after incubation with test compounds, M. avium-GFP (20 μg/ml): 18 h incubation, relative to untreated bacteria
Experimental: (§1) E. coli-GFP cells were grown in LB broth media while the MAC104 M. avium strain was grown in 7H9-ADC media.
(§2) Toxicity assays with GFP-expressing bacteria. E. coli was transformed with a GFP-expression plasmid that also confers tetracycline resistance was kindly provided by Dr. David Schneider (Elrod-Erickson et al., 2000). […] Both bacterial strains were grown and selected based on antibiotic resistance and GFP expression. All toxicity assays were performed using the plates and fluorometric parameters described in the previous section. Bacterial cell suspensions were seeded in a final volume of 100 μl at an optical density of 0.05 and 0.25 at 650 nm, for E. coli-GFP and M. avium-GFP, respectively. After exposure to the test compounds, assay plates were incubated at 37° C. in a humid environment to prevent dehydration in the wells. Unlike the HeLa-GFP assays, reading were performed without removing the supernatants to avoid loss of cells. Several untreated wells containing bacteria and media were used to determine the maximum level of fluorescence. Several wells containing media alone (no bacteria) were included in each assay to remove background fluorescence.
(§3) Data analysis. All compounds, including controls, were screened in triplicate. The average of the three wells that were used for the removal of the background fluorescence (wells containing water for the HeLa-GFP assays and wells containing media alone for bacteria) was subtracted from each individual well. The mean of these triplicate values for each compound was then obtained.

E. coli-GFP = experiment: Toxicity assay with GFP-expressing E. coli; conditions: for Percent-GFP-fluorescence after incubation with test compounds, E. coli-GFP (20 μg/ml): 10 h incubation, relative to untreated bacteria
Experimental: as §1, §2, §3

HeLa-GFP cells = experiment: HeLa-GFP fluorometric cytotoxicity assay; conditions: for Percent-GFP-fluorescence after incubation with test compounds, HeLa-GFP (2 μg/ml) / Percent-GFP-fluorescence after incubation with test compounds, HeLa-GFP (20 μg/ml): 18 h incubation, relative to untreated (DMSO) cells
Experimental: Cell culture. HeLa-GFP cells were cultured in DMEM media supplemented with 10% heat-inactivated newborn calf serum as previously described (Montoya et al., 2004). Stock cultures were prewashed twice with PBS before the treatment of trypsin for cell resuspension and subsequently re-plated at the concentration of 4,000 cells/well.
HeLa-GFP fluorometric cytotoxicity assay. All cell lines were seeded in clear-bottomed 96-well assay plates (3603, Costar, Corning Inc., Corning, N.Y.) in order to minimized background fluorescence. HeLa cells were grown in a total volume of 0.2 ml of medium and incubated overnight for proper cell attachment. The quinone compounds were then added to each well (in triplicate) and then incubated for a period of 18 hr. For the determination of fluorescence, the assay plates were then read using the Fluoroskan Ascent F1 fluorometer (Thermo Electron Corp.) set at the excitation and emission parameters of 485 and 518 nm, respectively. Since the HeLa-GFP cell line is adherent, the fluorometer was set to read from the bottom of the plate for closer proximity to the cells. Before the readings were performed, all supernatant media was removed to avoid any background interference and thus enhancing the sensitivity of the optical readings. For calibration purposes, three untreated control wells were used to determine the maximum level of fluorescence (100%). […] As a cytolysis control (complete loss of fluorescence), three wells containing cells were exposed to 0.2 ml of deionized water. These controls were then used to calculate the percent loss of GFP signal after compound exposure as determined by comparison with control wells containing cells that were not exposed to the chemical agent (see data analysis below).
Data analysis. All compounds, including controls, were screened in triplicate. The average of the three wells that were used for the removal of the background fluorescence (wells containing water for the HeLa-GFP assays and wells containing media alone for bacteria) was subtracted from each individual well. The mean of these triplicate values for each compound was then obtained. These mean values were then divided by the average obtained for maximum fluorescence (cells not treated with compound) and then multiplied by 100 to obtain the percentage values as shown in Table 1.

[2] = loss of GFP signal, Table 1 screen

| SMILES | Percent-GFP-fluorescence after incubation with test compounds, M. avium-GFP (20 μg/ml) [1] [%] | Percent-GFP-fluorescence after incubation with test compounds, E. coli-GFP (20 μg/ml) (E. coli-GFP) [%] | Percent-GFP-fluorescence after incubation with test compounds, HeLa-GFP (2 μg/ml) (HeLa-GFP cells) [%] | Percent-GFP-fluorescence after incubation with test compounds, HeLa-GFP (20 μg/ml) (HeLa-GFP cells) [%] | toxicity to M. avium (in words) [1, 2] | toxicity to E. coli (in words) (E. coli-GFP; [2]) | toxicity to HeLa-GFP cells (in words) (HeLa-GFP cells; [2]) |
| --- | --- | --- | --- | --- | --- | --- | --- |
| O=C1C=CC(=O)c2c(O)cccc21 [Compound Q2] | 72.0 | 111.0 | 14.0 | 29.0 |  |  |  |
| CC(C)=CCC1=C(O)C(=O)c2ccccc2C1=O [Compound Q4, lapachol, reference compound] | 26.0 | 56.0 | 70.0 | 3.0 |  |  |  |
| CC1=CC(=O)c2ccccc2C1=O [Compound Q5, menadione, reference compound] | 69.0 | 58.0 | 13.0 | 22.0 | highly toxic | highly toxic | highly toxic |
| O=C1C(c2ccccc2)=C(c2ccccc2)C(=O)c2ccccc21 [Compound Q6] | 55.0 | 105.0 | 78.0 | 20.0 |  |  |  |
| O=C1C=C(c2ccccc2)C(=O)c2ccccc21 [Compound Q7] | 35.0 | 89.0 | 13.0 | 25.0 |  |  |  |
| CCCC1=C(CCC)C(=O)c2ccccc2C1=O [Compound Q8] | 102.0 | 134.0 | 89.0 | 16.0 |  |  |  |
| CCCCCC1=C(C)C(=O)c2ccccc2C1=O [Compound Q9] | 85.0 | 115.0 | 90.0 | 31.0 |  |  |  |
| CCCCCC1=CC(=O)c2ccccc2C1=O [Compound Q10] | 81.0 | 110.0 | 84.0 | 52.0 |  |  |  |
| CCCCCCC1=CC(=O)c2ccccc2C1=O [Compound Q11] | 69.0 | 98.0 | 84.0 | 14.0 |  |  |  |
| CCCCCCCC1=CC(=O)c2ccccc2C1=O [Compound Q12] | 66.0 | 82.0 | 81.0 | 14.0 |  |  |  |
| CCCC1=C(CC)C(=O)c2ccccc2C1=O [Compound Q13] | 72.0 | 93.0 | 89.0 | 21.0 |  |  |  |
| O=C1C=C(CCCO)C(=O)c2ccccc21 [Compound Q14] | 58.0 | 90.0 | 83.0 | 29.0 |  |  |  |
| CCOC(=O)C1=C(CC)C(=O)c2ccccc2C1=O [Compound Q15] | 40.0 | 80.0 | 85.0 | 53.0 |  |  |  |
| CCCC1=CC(=O)c2c(OC)cccc2C1=O [Compound Q16] | 105.0 | 127.0 | 78.0 | 10.0 |  |  |  |
| CCCCCCC1=CC(=O)c2c(OC)cccc2C1=O [Compound Q17] | 100.0 | 115.0 | 80.0 | 18.0 |  |  |  |
| CCCCCCCC1=CC(=O)c2c(OC)cccc2C1=O [Compound Q18] | 127.0 | 112.0 | 88.0 | 22.0 |  |  |  |
| CCCC1=C(CCC)C(=O)c2c(OC)cccc2C1=O [Compound Q19] | 73.0 | 99.0 | 78.0 | 38.0 |  |  |  |
| O=C1c2ccccc2C(=O)C2(c3ccccc3)OC12c1ccccc1 (stereo not shown) [Compound Q20] | 77.0 | 86.0 | 28.0 | 29.0 |  |  |  |
| CC12OC1(c1ccccc1)C(=O)c1ccccc1C2=O (stereo not shown) [Compound Q21] | 57.0 | 122.0 | 57.0 | 23.0 |  |  |  |
| CCCCC12OC1(c1ccccc1)C(=O)c1ccccc1C2=O (stereo not shown) [Compound Q22] | 91.0 | 110.0 | 75.0 | 14.0 |  |  |  |
| CCCCC12OC1C(=O)c1ccccc1C2=O (stereo not shown) [Compound Q24] | 202.0 | 87.0 | 5.0 | 23.0 |  |  |  |
| CCCC12OC1(CCC)C(=O)c1ccccc1C2=O (stereo not shown) [Compound Q26] | 97.0 | 110.0 | 26.0 | 27.0 |  |  |  |
